Measurements published in BindingDB's records for doi:10.1016/j.bmcl.2012.03.106 (Syngenta Crop Protection Muenchwilen, 2012).

Experiment: Displacement of [3H]-Tritium-N-(4-chloro-2-methyl-6-(methylcarbamoyl)phenyl)-1-(3-chloropyridin-2-yl)-3-(trifluoromethyl)-1H-pyrazole-5-carboxamide from Myzus persicae (green peach aphid) ryanodine receptor
Work on `Cc1cc(C#N)cc(C(=O)NC(C)(C)CS(C)(=N)=O)c1NC(=O)c1cc(Br)nn1-c1ncccc1Cl` (stereo unspecified) yielded an IC50 of 18.5 µM. Molecule `Cc1cc(C#N)cc(C(=O)NC(C)(C)CS(C)(=O)=NC#N)c1NC(=O)c1cc(Br)nn1-c1ncccc1Cl` (stereo unspecified) has an IC50 of 8.09 µM. For `Cc1cc(Cl)cc(C(=O)NC(C)(C)CS(C)(=O)=NC#N)c1NC(=O)c1cc(C(F)(F)F)nn1-c1ncccc1Cl` (stereo unspecified), the IC50 was 4.86 µM. `CNC(=O)c1cc(Cl)cc(C)c1NC(=O)c1cc(Br)nn1-c1ncccc1Cl` [3-bromo-N-(4-chloro-2-methyl-6-(methylcarbamoyl)phenyl)-1-(3-chloropyridin-2-yl)-1H-pyrazole-5-carboxamide] showed an IC50 of 4.13 µM. Work on `Cc1cc(C(F)(C(F)(F)F)C(F)(F)F)ccc1NC(=O)c1cccc(I)c1C(=O)NC(C)(C)CS(C)(=O)=O` [CHEBI:38798] yielded an IC50 of 83.5 µM. With `CNC(=O)c1cc(C#N)cc(C)c1NC(=O)c1cc(Br)nn1-c1ncccc1Cl` [CYANTRANILIPROLE] the IC50 was 2.11 µM.
